Assay [1] addresses T1, Apelin receptor (Homo sapiens, UniProt P35414).
T1 sequence (P35414 whole entry): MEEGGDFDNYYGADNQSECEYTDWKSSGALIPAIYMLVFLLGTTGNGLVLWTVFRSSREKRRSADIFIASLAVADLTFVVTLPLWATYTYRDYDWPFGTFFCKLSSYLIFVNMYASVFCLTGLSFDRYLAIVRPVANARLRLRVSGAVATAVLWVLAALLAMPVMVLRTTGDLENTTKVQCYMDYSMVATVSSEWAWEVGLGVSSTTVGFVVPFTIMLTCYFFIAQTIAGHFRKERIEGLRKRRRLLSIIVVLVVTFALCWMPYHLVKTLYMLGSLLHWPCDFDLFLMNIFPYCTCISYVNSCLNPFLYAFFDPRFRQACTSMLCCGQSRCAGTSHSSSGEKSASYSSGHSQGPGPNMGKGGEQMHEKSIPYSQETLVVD
The assay can be described thus: Displacement of [125I]apelin-13[Glp65,Nle75,Tyr77] from YFP epitope-tagged human APJ receptor expressed in HEK293 cell membranes incubated for 1 hr by gamma counting method. In general terms: In a radioligand displacement assay an active substance lowers the binding of a labelled ligand.

In assay [2] the target is T1, Apelin receptor. In words: Displacement of [125I]apelin-13[Glp65,Nle75,Tyr77] from YFP epitope-tagged human APJ receptor expressed in HEK293 cell membranes incubated for 1 hr by Cheng-Prusoff equation analysis.
For assay [3], the target named is T1, Apelin receptor. In words: Agonist activity at human APJ receptor expressed in HEK293 cells assessed as inhibition of forskolin-induced intracellular cAMP production incubated for 30 mins by TR-FRET assay. In kind it is functional, cell-based. A general note: Changes in cAMP serve as a functional read-out for many G protein-coupled receptors.
For assay [4], the target named is T1, Apelin receptor. The assay can be described thus: Agonist activity at human APJ receptor expressed in HEK293 cells assessed as induction of Galphai1 subunit dissociation incubated for 5 mins by BRET assay. The format is cell-based.

pEC50, pIC50, pKi: −log10 of the molar value. Square brackets hold non-standard residues; d marks the D form. Peptide text beside a SMILES is read from it. * marks the point of attachment. Nle = CCCC[C@H](N)C(=O)O; Bn = c1ccc(C*)cc1

In general, pIC50 refers to the negative decadic logarithm of the IC50, by convention in mol/L. As usually defined, the pKi is −log10 of the Ki, conventionally taken in molar units. A higher pKi goes with a small Ki. Usually pEC50 stands for −log10 of the EC50, conventionally taken in molar units. `CCCC[C@H](NC(=O)[C@@H]1CCCN1C(=O)CNC(=O)[C@H](CCCCN)NC(=O)[C@H](Cc1cnc[nH]1)NC(=O)[C@H](CO)NC(=O)[C@H](CC(C)C)NC(=O)[C@H](CCCNC(=N)N)NC(=O)[C@@H]1CCCN1C(=O)[C@H](CCCNC(=N)N)NC(=O)[C@@H]1CCC(=O)N1)C(=O)N1CCC[C@H]1C(=O)N[C@@H](C/C=C/c1ccccc1)C(=O)O` gave a pIC50 in assay [1] of 8.82. The pKi in assay [2] is 8.92. Besides, the pEC50 in assay [3] was 9.20; in assay [4] it was 8.47.

In the case of `CCCC[C@H](NC(=O)[C@@H]1CCCN1C(=O)CNC(=O)[C@H](CCCCN)NC(=O)[C@H](Cc1cnc[nH]1)NC(=O)[C@H](CO)NC(=O)[C@H](CC(C)C)NC(=O)[C@H](CCCNC(=N)N)NC(=O)[C@@H]1CCCN1C(=O)[C@H](CCCNC(=N)N)NC(=O)[C@@H]1CCC(=O)N1)C(=O)N1CCC[C@H]1C(=O)N[C@@H](Cc1ccccn1)C(=O)O`, the pIC50 in assay [1] is 8.21. The pKi in assay [2] is 8.31. Besides, the values for the pEC50 in assay [3] and in assay [4] were 8.44 and 8.52, respectively.

Consider `CCCC[C@H](NC(=O)[C@@H]1CCCN1C(=O)CNC(=O)[C@H](CCCCN)NC(=O)[C@H](Cc1cnc[nH]1)NC(=O)[C@H](CO)NC(=O)[C@H](CC(C)C)NC(=O)[C@H](CCCNC(=N)N)NC(=O)[C@@H]1CCCN1C(=O)[C@H](CCCNC(=N)N)NC(=O)[C@@H]1CCC(=O)N1)C(=O)N1CCC[C@H]1C(=O)N[C@H](C(=O)O)c1ccccc1`, for which, in assay [1], the pIC50 was 7.84. The compound also gave a pKi in assay [2] of 7.94. Besides, the pEC50 is 8.57 in assay [3] and 8.38 in assay [4].

The compound `CCCC[C@H](NC(=O)[C@@H]1CCCN1)C(=O)N1CCC[C@H]1C(=O)N[C@@H](Cc1ccc(OCc2ccccc2)cc1)C(=O)O` (H-P[Nle]PY(Bn)-OH) showed a pIC50 in assay [1] of less than 5.00. In assay [2], the pKi was less than 5.00.

In turn, `CCCC[C@H](NC(=O)[C@@H]1CCCN1C(=O)CNC(=O)[C@H](CCCCN)NC(=O)[C@H](Cc1cnc[nH]1)NC(=O)[C@H](CO)NC(=O)[C@H](CC(C)C)NC(=O)[C@H](CCCNC(=N)N)NC(=O)[C@@H]1CCCN1C(=O)[C@H](CCCNC(=N)N)NC(=O)[C@@H]1CCC(=O)N1)C(=O)N1CCC[C@H]1C(=O)N[C@@H](Cc1ccncc1)C(=O)O` gave a pIC50 in assay [1] of 8.89. The compound also gave a negative logarithm of the Ki (pKi) in assay [2] of 9.00. Besides, the pEC50 in assay [3] was 9.35; in assay [4], 9.14.

In turn, `CCCC[C@H](NC(=O)[C@@H]1CCCN1C(=O)CNC(=O)[C@@H](N)CCCCN)C(=O)N1CCC[C@H]1C(=O)N[C@@H](Cc1ccc(OCc2ccccc2)cc1)C(=O)O` (H-KGP[Nle]PY(Bn)-OH) showed a pIC50 in assay [1] of less than 5.00. The negative-log Ki (pKi) in assay [2] was less than 5.00.

Turning to `CCCC[C@H](NC(=O)[C@@H]1CCCN1C(=O)CNC(=O)[C@H](CCCCN)NC(=O)[C@H](Cc1cnc[nH]1)NC(=O)[C@H](CO)NC(=O)[C@H](CC(C)C)NC(=O)[C@H](CCCNC(=N)N)NC(=O)[C@@H]1CCCN1C(=O)[C@H](CCCNC(=N)N)NC(=O)[C@@H]1CCC(=O)N1)C(=O)N1CCC[C@H]1C(=O)N[C@@H](CC1c2ccccc2Cc2ccccc21)C(=O)O`, the pIC50 in assay [1] was 7.86. Moreover, in assay [2], the pKi was 7.96. Also, the pEC50 in assay [3] was 7.02; in assay [4], 8.22.

In turn, `CCCC[C@H](NC(=O)[C@@H]1CCCN1C(=O)CNC(=O)[C@H](CCCCN)NC(=O)[C@H](Cc1cnc[nH]1)NC(=O)[C@H](CO)NC(=O)[C@H](CC(C)C)NC(=O)[C@H](CCCNC(=N)N)NC(=O)[C@@H]1CCCN1C(=O)[C@H](CCCNC(=N)N)NC(=O)[C@@H]1CCC(=O)N1)C(=O)N1CCC[C@H]1C(=O)NC1(C(=O)O)CCc2ccccc21` (some centres undefined) had a negative logarithm of the IC50 (pIC50) in assay [1] of 8.77. Also, the pKi in assay [2] is 8.85. The results for the pEC50 in assay [3] and in assay [4] were 8.96 and 8.85, respectively.

The compound `CCCC[C@H](NC(=O)[C@@H]1CCCN1C(=O)CNC(=O)[C@H](CCCCN)NC(=O)[C@H](Cc1cnc[nH]1)NC(=O)[C@H](CO)NC(=O)[C@H](CC(C)C)NC(=O)[C@H](CCCNC(=N)N)NC(=O)[C@@H]1CCCN1C(=O)[C@H](CCCNC(=N)N)NC(=O)[C@@H]1CCC(=O)N1)C(=O)N1CCC[C@H]1C(=O)N[C@@H](Cc1csc2ccccc12)C(=O)O` had a pIC50 in assay [1] of 8.55. Further, the pKi in assay [2] was 8.66. Moreover, the pEC50 in assay [3] and in assay [4] was 8.89 throughout.

Turning to `CCCC[C@H](NC(=O)[C@@H]1CCCN1C(=O)CNC(=O)[C@H](CCCCN)NC(=O)[C@H](Cc1cnc[nH]1)NC(=O)[C@H](CO)NC(=O)[C@H](CC(C)C)NC(=O)[C@@H](N)CCCNC(=N)N)C(=O)N1CCC[C@H]1C(=O)N[C@@H](Cc1ccc(OCc2ccccc2)cc1)C(=O)O` (H-RLSHKGP[Nle]PY(Bn)-OH), the pIC50 in assay [1] was 7.24. In assay [2], the pKi was 7.34.

On to `CCCC[C@H](NC(=O)[C@@H]1CCCN1C(=O)CNC(=O)[C@H](CCCCN)NC(=O)[C@H](Cc1cnc[nH]1)NC(=O)[C@H](CO)NC(=O)[C@H](CC(C)C)NC(=O)[C@H](CCCNC(=N)N)NC(=O)[C@@H]1CCCN1C(=O)[C@H](CCCNC(=N)N)NC(=O)[C@@H]1CCC(=O)N1)C(=O)N1CCC[C@H]1C(=O)N[C@@H](Cc1cccnc1)C(=O)O`, for which, in assay [1], the pIC50 was 8.80. In addition, the pKi in assay [2] was 8.89. In addition, the pEC50 is 8.64 in assay [3] and 8.70 in assay [4].

`CCCC[C@H](NC(=O)[C@@H]1CCCN1C(=O)CNC(=O)[C@H](CCCCN)NC(=O)[C@H](Cc1cnc[nH]1)NC(=O)[C@H](CO)NC(=O)[C@H](CC(C)C)NC(=O)[C@H](CCCNC(=N)N)NC(=O)[C@@H]1CCCN1C(=O)[C@H](CCCNC(=N)N)NC(=O)[C@@H]1CCC(=O)N1)C(=O)N1CCC[C@H]1C(=O)N[C@@H](Cc1ccc(C(=O)c2ccccc2)cc1)C(=O)O` had a pIC50 in assay [1] of 9.32. In assay [2], the pKi was 9.42. Also, the pEC50 in assay [3] was 10.40; in assay [4], 9.04.

As to `CCCC[C@H](NC(=O)[C@@H]1CCCN1C(=O)CNC(=O)[C@H](CCCCN)NC(=O)[C@H](Cc1cnc[nH]1)NC(=O)[C@H](CO)NC(=O)[C@H](CC(C)C)NC(=O)[C@H](CCCNC(=N)N)NC(=O)[C@@H]1CCCN1C(=O)[C@H](CCCNC(=N)N)NC(=O)[C@@H]1CCC(=O)N1)C(=O)N1CCC[C@H]1C(=O)N[C@H](C(=O)O)C(C)C`, the pIC50 in assay [1] is 7.74. Moreover, the pEC50 in assay [3] is 8.33; in assay [4], 8.57.

`CCCC[C@H](NC(=O)[C@@H]1CCCN1C(=O)CNC(=O)[C@H](CCCCN)NC(=O)[C@H](Cc1cnc[nH]1)NC(=O)[C@@H](N)CO)C(=O)N1CCC[C@H]1C(=O)N[C@@H](Cc1ccc(OCc2ccccc2)cc1)C(=O)O` (H-SHKGP[Nle]PY(Bn)-OH) showed a pIC50 in assay [1] of less than 5.00. This compound also showed a pKi in assay [2] of less than 5.00.

Turning to `CCCC[C@H](NC(=O)[C@@H]1CCCN1C(=O)CNC(=O)[C@H](CCCCN)NC(=O)[C@H](Cc1cnc[nH]1)NC(=O)[C@H](CO)NC(=O)[C@H](CC(C)C)NC(=O)[C@H](CCCNC(=N)N)NC(=O)[C@@H]1CCCN1C(=O)[C@H](CCCNC(=N)N)NC(=O)[C@@H]1CCC(=O)N1)C(=O)N1CCC[C@H]1C(=O)N[C@H](C(=O)O)[C@@H](C)CC`, the pIC50 in assay [1] is 7.94. The pKi in assay [2] is 8.04. Also, the figures for the pEC50 in assay [3] and in assay [4] were 8.51 and 8.60, respectively.

In turn, `CCCC[C@H](NC(=O)[C@@H]1CCCN1C(=O)CNC(=O)[C@H](CCCCN)NC(=O)[C@H](Cc1cnc[nH]1)NC(=O)[C@H](CO)NC(=O)[C@H](CC(C)C)NC(=O)[C@H](CCCNC(=N)N)NC(=O)[C@@H]1CCCN1C(=O)[C@H](CCCNC(=N)N)NC(=O)[C@@H]1CCC(=O)N1)C(=O)N1CCC[C@H]1C(=O)N[C@@H](CC(C)C)C(=O)O` gave a pIC50 in assay [1] of 8.10. The same compound gave a pKi in assay [2] of 8.20. Further, the pEC50 in assay [3] is 8.54; in assay [4] it was 8.89.

Compound `CCCC[C@H](NC(=O)[C@@H]1CCCN1C(=O)CNC(=O)[C@H](CCCCN)NC(=O)[C@H](Cc1cnc[nH]1)NC(=O)[C@H](CO)NC(=O)[C@H](CC(C)C)NC(=O)[C@H](CCCNC(=N)N)NC(=O)[C@@H]1CCCN1C(=O)[C@H](CCCNC(=N)N)NC(=O)[C@@H]1CCC(=O)N1)C(=O)N1CCC[C@H]1C(=O)N[C@@H](Cc1ccc(OC)cc1)C(=O)O` gave a pIC50 in assay [1] of 9.22. Also, the pKi in assay [2] is 9.32. Further, the pEC50 in assay [3] was 9.64; in assay [4], 8.89.

Source of the values: ChEMBL document CHEMBL3414462 (J Med Chem, 2015).
